The text below walks through data of patent US6664232B1, “HLA-A2 restraint tumor antigen peptide originating in SART-1” (Kyogo Itoh, priority 1998, dated 2003).

No end group written: not given here.

The experiment deals with YK-EC (HLA-A2-restricted CTL cell line) with HLA-A0201-positive T2 cells. The experiment in a line: IFN-γ production by YK-EC incubated with peptide-pulsed T2 cells (ELISA). The conditions noted are these: 2×10^4 T2 cells pulsed with peptide at 10 μM over 2 hours, incubated with 1×10^5 YK-EC for 18 hours; IFN-γ in supernatant by ELISA; non peptide control 6.5. In kind it is cell-based, human. How it is done:
Specifically, 10^4 of VA-13 cells were placed in each well of 96-well microplate, and incubated in RPMI 1640 medium containing 10% FCS. VA-13 cells were doubly transfected with 30 μl mixture consisting of 100 ng of the recombinant plasmid for HLA-A0201 cDNA and 100 ng of 6DI by using Lipofectin reagent (GIBCO BRL). Transfectants were prepared in duplicate. After 5-hour-incubation, 200 μl of culture medium was added to the transfectants, and the incubation continued for 72 hours. The culture medium was removed and 2×10^4 YK-EC were added, which was followed by cultivation for 18 to 24 hours. The culture medium was recovered, and the amount of IFN-γ was measured by ELISA. Specifically, an anti-humnan IFN-γ mouse monoclonal antibody was allowed to adsorb on wells of 96-well microplate to provide a solid-phased antibody. After blocking non-specific bindings with bovine serum albumin, the solid-phased antibody was allowed to bind with IFN-γ in the test sample. Anti-human IFN-γ rabbit polyclonal antibody as a detection antibody was then allowed to bind, which was followed by binding with an anti-rabbit immunoglobulin goat antibody (Amersham) labeled with alkaline phosphatase. The plate was subjected to color development reaction with peroxdase color development kit T (Sumitomo Bakelite), and measurement of absorbance at 405 nm. The absorbance was compared with that obtained with standard IFN-γ to determine the amount of IFN-γ. In the control experiments, the following three groups of cells were treated in the same manner: cells without transfection (non-treated group); cells transfected with recombinant plasmid 6DI alone; and cells transfected with solely recombinant plasmid containing HLA-A201 cDNA. To 2×10^4 T2 cells (Immunogenetics, 21:235,1985), which cell is an HLA-A0201-positive T-B hybridoma cell line but lacks the ability to present endogenous peptides, were added each of six peptides prepared in Example 3 at 10 μM over 2 hours. After incubating with 1×10^5 YK-EC for 18 hours, the amount of IFN-γ in supernatant produced by YK-EC was measured by ELISA in the same manner as described in Example 2.

In the case of AQKTPYIVL [778-786], the “Amount of INF-γ produced by YK-EC” value came to 105.4 pg/mL.
With LLETTVQKV [650-658], the “Amount of INF-γ produced by YK-EC” value turned out to be 118.1 pg/mL.
Take LLLCQNKGL [642-650]: the “Amount of INF-γ produced by YK-EC” value was 109.1 pg/mL.
For LLLCQNKGLL [642-651] the value was 112.4 pg/mL; for RVKAPNKSL [660-668], 71.1 pg/mL; for YVDETGRKL [712-720], 86.1 pg/mL.
